Source: patent US8163909B2, “Substituted hydroxyethyl amine compounds as beta-secretase modulators and methods of use” (Amgen Inc., priority 2007, dated 2012)
Like-named read-outs stand apart in the source and are kept apart here.

How the values were obtained:
[1] = Microsomal stability assay, human liver microsomes;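 also: pooled human liver microsomes at 0.25 mg/mL with 1 µM compound and NADPH at 37 °C, pH 7.4, for 30 min, unchanged parent quantified by LC-MS/MS against the 0 min sample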
[2] = test system: Aβ40 in conditioned medium of cells stably expressing Amyloid Precursor Protein (APP); experiment: In vitro BACE cell-based assay (Aβ40 in conditioned medium, sandwich ELISA); settings: Homo sapiens;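 also: compounds added as a dilution series, secreted peptide quantified by europium time-resolved fluorescence readout, potency fitted from percent of control versus compound concentration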
[3] = Microsomal stability assay, rat liver microsomes;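 also: rat liver microsomes (0.25 mg/mL) with about 1 µM compound plus 1 mM NADPH, pH 7.4, 37 °C for 30 min, parent left measured by LC-MS/MS against 0 min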
[4] = target: CYP3A4 (CYP3A) (Homo sapiens, UniProt P08684); experiment: in vitro; settings: microsomes, pH 7.4;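 also: inhibition of CYP3A-mediated 1-hydroxymidazolam formation after 10 min incubation with NADPH, quantified by HPLC MS relative to metabolite produced without test compound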
[5] = target: CYP2D6 (Homo sapiens, UniProt P10635); experiment: CYP2D6 inhibition assay (bufuralol, pooled human liver microsomes)
[6] = test system: Abeta peptide; experiment: In vivo inhibition of beta-secretase (reduction of Abeta peptide in brain and cerebrospinal fluid); parameters: species or system rat; settings: Rattus norvegicus, po, 4 h, orally administered at 30 mg/kg dose, measured after 4 hours;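 also: abeta peptide quantified by sandwich ELISA with electrochemiluminescence readout in rat brain supernatant or CSF, relative to vehicle-dosed control animals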
[7] = target: Beta Secretase enzyme (BACE) (Homo sapiens, UniProt P56817); experiment: In vitro enzymatic BACE FRET (fluorescence resonance energy transfer) assay; format: biochemical;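 also: fluorescence read after 1 h with 50 nM quenched peptide substrate spanning the BACE cleavage site, in pH 4.2 acetate buffer containing 10% DMSO and nonionic detergent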
[8] = HEK293, HEK cell-based assay IC50, read-out: HEK cell assay
[9] = 2D6 IC50 (uM), CYP2D6 inhibition
[10] = rat cerebrospinal fluid, read-out: percent reduction of abeta peptide in the cerebrospinal fluid of the rat
[11] = BACE enzyme assay IC50, read-out: BACE1 FRET assay
[12] = HEK293, HEK cells, read-out: HEK cell assay (IC50)
[13] = read-out: BACE1 FRET assay (IC50)
[14] = HEK293, HEK cell-based assay, IC50's in uM, read-out: HEK cell assay
[15] = 2D6 IC50 (uM), CYP enzyme inhibition
[16] = BACE enzyme assay, IC50's in uM, read-out: BACE1 FRET assay
[17] = HEK293, HEK cells, read-out: HEK cell assay
[18] = BACE enzyme assay, read-out: BACE1 FRET assay
[19] = rat brain, read-out: percent reduction of abeta peptide in the brain of the rat

Chain of Beta Secretase enzyme (BACE) (P56817 46-501): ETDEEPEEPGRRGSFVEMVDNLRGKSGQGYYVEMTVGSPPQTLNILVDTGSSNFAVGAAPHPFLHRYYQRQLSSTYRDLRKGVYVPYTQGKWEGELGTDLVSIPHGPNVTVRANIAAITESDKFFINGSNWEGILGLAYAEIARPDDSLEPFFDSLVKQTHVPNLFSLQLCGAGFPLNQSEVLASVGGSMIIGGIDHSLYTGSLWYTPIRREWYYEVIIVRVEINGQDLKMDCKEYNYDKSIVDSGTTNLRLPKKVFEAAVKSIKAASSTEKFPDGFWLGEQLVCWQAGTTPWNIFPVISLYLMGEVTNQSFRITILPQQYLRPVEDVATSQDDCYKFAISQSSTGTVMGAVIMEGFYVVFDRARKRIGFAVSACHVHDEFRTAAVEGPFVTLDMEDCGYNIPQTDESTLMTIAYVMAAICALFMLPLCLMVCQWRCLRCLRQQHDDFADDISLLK
Chain of CYP3A4 (CYP3A) (P08684 2-503): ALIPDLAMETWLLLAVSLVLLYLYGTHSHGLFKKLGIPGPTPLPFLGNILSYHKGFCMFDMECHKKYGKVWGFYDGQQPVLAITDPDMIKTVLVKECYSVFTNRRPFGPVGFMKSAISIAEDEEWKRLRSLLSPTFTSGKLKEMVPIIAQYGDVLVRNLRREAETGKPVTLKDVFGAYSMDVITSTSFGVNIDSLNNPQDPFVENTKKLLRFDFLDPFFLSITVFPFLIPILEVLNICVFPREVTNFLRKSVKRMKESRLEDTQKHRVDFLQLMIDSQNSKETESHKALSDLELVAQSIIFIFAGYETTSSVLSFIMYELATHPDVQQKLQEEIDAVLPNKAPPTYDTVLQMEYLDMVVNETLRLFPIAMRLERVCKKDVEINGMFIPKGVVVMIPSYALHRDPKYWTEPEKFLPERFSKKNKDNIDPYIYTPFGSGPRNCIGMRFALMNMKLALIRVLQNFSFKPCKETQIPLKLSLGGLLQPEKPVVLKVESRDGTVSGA
Chain of CYP2D6 (P10635 whole entry): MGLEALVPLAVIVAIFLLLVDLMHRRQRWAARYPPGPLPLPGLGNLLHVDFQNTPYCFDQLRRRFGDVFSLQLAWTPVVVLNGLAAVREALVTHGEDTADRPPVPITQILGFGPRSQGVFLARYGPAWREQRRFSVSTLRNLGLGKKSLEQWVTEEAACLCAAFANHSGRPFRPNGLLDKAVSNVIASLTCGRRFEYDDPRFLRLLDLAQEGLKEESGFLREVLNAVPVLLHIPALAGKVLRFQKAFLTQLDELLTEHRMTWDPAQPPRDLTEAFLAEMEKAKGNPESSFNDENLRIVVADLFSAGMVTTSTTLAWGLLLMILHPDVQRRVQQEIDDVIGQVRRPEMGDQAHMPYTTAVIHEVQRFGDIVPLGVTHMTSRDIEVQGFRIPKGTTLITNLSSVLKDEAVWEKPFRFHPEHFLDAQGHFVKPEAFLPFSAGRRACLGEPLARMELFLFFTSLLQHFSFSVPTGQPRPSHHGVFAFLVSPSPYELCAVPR

Row | SMILES | HLM ([1]; human liver microsomes) [µL/min/mg] | RLM ([3]; rat liver microsomes) [µL/min/mg] | IC50 [4] [nM] | inhibition in vivo at 30 mg/kg [6, 10] [%] | HLM ([1]; human liver microsomal data) [µL/min/mg] | RLM ([3]; rat liver microsomal data) [µL/min/mg] | IC50 [5, 15] [µM] | IC50 [2, 17] [µM] | IC50 [7, 18] [µM] | other results
1 | CC(=O)N[C@@H](Cc1cc(F)cc(F)c1)[C@H](O)CN[C@H]1CC2(CCC2)Oc2c(-c3ccncc3)cc(CC(C)C)cc21 [Example 673] | 46 | 118 | ≤ 30 | 10 to 80 |  |  |  |  |  | IC50 [2, 8]: 0.005 µM; IC50 [5, 9]: 0.8 µM; IC50 [7, 11]: 0.009 µM
2 | CO[C@H](C)C(=O)N[C@@H](Cc1cc(F)cc(F)c1)[C@H](O)CN[C@H]1CC2(CCC2)Oc2c1cc(CC(C)(C)C)nc2-c1cncn1C [Example 652] | 26 | 50 | 160 | 10 to 80 |  |  |  |  |  | IC50 [2, 12]: 0.02 µM; IC50 ([5]; 2D6 IC50, CYP2D6 inhibition): 2 µM; IC50 [7, 13]: 0.028 µM
3 | COCC(=O)N[C@@H](Cc1cccc(C#N)c1)[C@H](O)CN[C@H]1CC2(CCC2)Oc2c(-c3ccncc3)cc(CC(C)(C)C)cc21 [Example 636] | 32 | 90 | 100 | 10 to 80 |  |  |  |  |  | IC50 [2, 12]: 0.005 µM; IC50 ([5]; 2D6 IC50, CYP2D6 inhibition): 3 µM; IC50 [7, 13]: 0.008 µM
4 | CO[C@H](C)C(=O)N[C@@H](Cc1cccc(-c2nccs2)c1)[C@H](O)CN[C@H]1CC2(CCC2)Oc2ncc(CC(C)(C)F)cc21 [Example 831, (2R)-N-((1S,2R)-3-(((4′S)-6′-(2-fluoro-2-methylpropyl)-3′,4′-dihydrospiro[cyclobutane-1,2′-pyrano[2,3-b]pyridin]-4′-yl)amino)-2-hydroxy-1-(3-(1,3-thiazol-2-yl)benzyl)propyl)-2-methoxypropanamide] |  |  | 200 | 10 to 80 | 21 | 45 | 0.8 |  |  | IC50 [2, 14]: 0.047 µM; IC50 [7, 16]: 0.024 µM
5 | C#Cc1cc(C[C@H](NC(=O)COCC)[C@H](O)CN[C@H]2CC3(CCC3)Oc3ncc(CC(C)(C)C)cc32)ccc1F [Example 837] |  |  | 100 | 10 to 80 | 29 | 72 | 1.6 |  |  | IC50 [2, 14]: 0.023 µM; IC50 [7, 16]: 0.007 µM
6 | COCC(=O)N[C@@H](Cc1cccc(F)c1)[C@H](O)CN[C@H]1CC2(CCC2)Oc2c(-c3ccncc3)cc(CC(C)(C)C)cc21 [Example 535] |  |  | 100 | 10 to 80 | 49 | 79 | 2.5 | 0.006 | 0.009 | 
7 | CC(=O)N[C@@H](Cc1ccc(F)c(-c2nccs2)c1)[C@H](O)CN[C@H]1CC2(CCC2)Oc2ccc(CC(C)(C)C)cc21 [Example 640] | 59 | 113 | 700 | 10 to 80 |  |  |  |  |  | IC50 [2, 12]: 0.053 µM; IC50 ([5]; 2D6 IC50, CYP2D6 inhibition): 0.3 µM; IC50 [7, 13]: 0.006 µM
8 | CO[C@H](C)C(=O)N[C@@H](Cc1ccc(F)c(-c2nccs2)c1)[C@H](O)CN[C@H]1CC2(CCC2)Oc2ncc(CC(C)(C)C)cc21 [Example 690] | 40 | 53 | 100 |  |  |  |  |  |  | IC50 [2, 8]: 0.04 µM; IC50 [5, 9]: 0.5 µM; inhibition in vivo at 30 mg/kg [6, 19]: 5 to 80%; IC50 [7, 11]: 0.011 µM
9 | COCC(=O)N[C@@H](Cc1ccccc1)[C@H](O)CN[C@H]1CC2(CCC2)Oc2c1cc(CC(C)(C)C)nc2-c1ccncc1 [Example 541] |  |  | 100 | 10 to 80 | 31 | 192 | 2.1 | 0.055 | 0.02 | 
10 | COCC(=O)N[C@@H](Cc1ccc(F)cc1)[C@H](O)CN[C@H]1CC(C)(C)Oc2c1cc(CC(C)C)c1c2OCO1 [Example 747] | 125 | 217 | 200 | 10 to 80 |  |  |  |  |  | IC50 [2, 8]: 0.243 µM; IC50 [5, 9]: 9.1 µM; IC50 [7, 11]: 0.209 µM
11 | CC(C)(C)Cc1cnc2c(c1)[C@@H](NC[C@@H](O)[C@H](Cc1ccc3c(c1)OCO3)NC(=O)[C@H]1CCO1)CC1(CCC1)O2 [Example 516, (2R)-N-((1S,2R)-1-(1,3-benzodioxol-5-ylmethyl)-3-(((4′S)-6′-(2,2-dimethylpropyl)-3′,4′-dihydrospiro[cyclobutane-1,2′-pyrano[2,3-b]pyridin]-4′-yl)amino)-2-hydroxypropyl)-2-oxetanecarboxamide] |  |  | 100 | 10 to 80 | 31 | 94 | 3.3 | 0.02 | 0.018 | 
12 | COCC(=O)N[C@@H](Cc1ccc(F)cc1)[C@H](O)CN[C@H]1CC2(CCC2)Oc2c1cc(CC(C)C)cc2-n1ccnc1 [Example 478] |  |  | 100 | 10 to 80 | 24 | 157 |  |  |  | IC50 ([2]; HEK293, Table 2, HEK cells, read-out: HEK cell assay): 0.068 µM; IC50 ([5]; 2D6 IC50, CYP enzyme inhibition): 2.2 µM; IC50 ([7]; Table 2, read-out: BACE1 FRET assay): 0.056 µM
13 | COCC(=O)N[C@@H](Cc1cccc(F)c1)[C@H](O)CN[C@H]1CC2(CCC2)Oc2c1cc(CC(C)(C)C)nc2-n1ccnc1 [Example 504] |  |  | 100 | 10 to 80 | 16 | 87 | 2.3 | 0.028 | 0.014 | 
14 | CC(C)(C)Cc1cnc2c(c1)[C@@H](NC[C@@H](O)[C@H](Cc1cc(F)cc(-c3nccs3)c1)NC(=O)[C@@H]1CCCO1)CC1(CCC1)O2 [Example 879] |  |  | 200 |  | 96 | 77 |  |  |  | IC50 ([2]; HEK293, cell-based assay, HEK cells, IC50's in uM, read-out: HEK cell assay): 0.007 µM; IC50 at 10 min ([5]; human, pooled human liver microsomes, pH 7.4, probe bufuralol, about 5 μM, 2D6 IC50, CYP enzyme inhibition): 600 nM; inhibition in vivo at 30 mg/kg [6, 19]: 5 to 80%; IC50 [7, 16]: 0.006 µM
15 | COC(OC)C(=O)N[C@@H](Cc1cccc(-c2nccs2)c1)[C@H](O)CN[C@H]1CC2(CCC2)Oc2ncc(CC(C)C)cc21 [Example 816, N-((1S,2R)-2-hydroxy-3-(((4′S)-6′-(2-methylpropyl)-3′,4′-dihydrospiro[cyclobutane-1,2′-pyrano[2,3-b]pyridin]-4′-yl)amino)-1-(3-(1,3-thiazol-2-yl)benzyl)propyl)-2,2-dimethoxyacetamide] |  |  | 300 | 10 to 80 | 46 | 44 | 0.7 |  |  | IC50 [2, 14]: 0.024 µM; inhibition in vivo at 30 mg/kg [6, 19]: 5 to 80%; IC50 [7, 16]: 0.008 µM
16 | COC(OC)C(=O)N[C@@H](Cc1ccc2c(c1)OCO2)[C@H](O)CN[C@H]1CC2(CCC2)Oc2ncc(CC(C)(C)C)cc21 [Example 523, N-((1S,2R)-1-(1,3-benzodioxol-5-ylmethyl)-3-(((4′S)-6′-(2,2-dimethylpropyl)-3′,4′-dihydrospiro[cyclobutane-1,2′-pyrano[2,3-b]pyridin]-4′-yl)amino)-2-hydroxypropyl)-2,2-dimethoxyacetamide] |  |  | 100 | 10 to 80 | 37 | 94 | 5.4 | 0.033 | 0.019 | inhibition in vivo at 30 mg/kg [6, 19]: 5 to 80%
